Assay results from ChEMBL document CHEMBL1201862, “PubChem BioAssay data set” (2004).
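Compound exposure: 48 hours, 5 concentrations, 96-well plates. At the GI50, growth is halved.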 Activity calls are given as the source filed them. No stated cut-off is given here; in the data, active = GI50 up to about 1.1 µM and inactive = higher.

Tests used:
Experiment in all cases: NCI anticancer screen, dose series, 48 h
[1] = tested on: HCC 2998
[2] = tested on: IGROV-1
[3] = tested on: NCI-H226
[4] = tested on: NCI-H460
[5] = tested on: SF-268
[6] = tested on: SF-295
[7] = tested on: KM12
[8] = tested on: UACC-257
[9] = tested on: HCT-116
[10] = tested on: SF-539
[11] = tested on: Malme-3M
[12] = tested on: K562
[13] = tested on: SK-MEL-28
[14] = tested on: M14
[15] = tested on: OVCAR-4
[16] = tested on: ACHN
[17] = tested on: MDA-N
[18] = tested on: SNB-75

| SMILES | GI50 [1] | GI50 [2] | GI50 [3] | GI50 [4] | GI50 [5] | GI50 [6] | GI50 [7] | GI50 [8] | GI50 [9] | GI50 [10] | GI50 [11] | GI50 [12] | GI50 [13] | GI50 [14] | GI50 [15] | GI50 [16] | GI50 [17] | GI50 [18] |
| --- | --- | --- | --- | --- | --- | --- | --- | --- | --- | --- | --- | --- | --- | --- | --- | --- | --- | --- |
| COC(=O)[C@H]1C=NN[C@@H]1C(=O)N1[C@H]2CC3CC[C@@]2(CS1(=O)=O)C3(C)C | > 100 µM (inactive) | > 100 µM (inactive) | > 100 µM (inactive) | > 100 µM (inactive) | > 100 µM (inactive) | > 100 µM (inactive) | > 100 µM (inactive) | > 100 µM (inactive) | > 100 µM (inactive) | > 100 µM (inactive) | > 100 µM (inactive) | > 100 µM (inactive) | > 100 µM (inactive) | > 100 µM (inactive) | > 100 µM (inactive) | > 100 µM (inactive) | – | – |
| Oc1ccc(/C=N/N=c2\[nH][nH]/c(=N\N=C\c3ccc(O)cc3O)c3ccccc23)c(O)c1 | – | 0.327 µM (active) | – | 0.355 µM (active) | 0.126 µM (active) | 0.295 µM (active) | 0.275 µM (active) | 0.428 µM (active) | 0.313 µM (active) | 0.294 µM (active) | – | 0.261 µM (active) | – | 0.318 µM (active) | – | 0.21 µM (active) | 0.228 µM (active) | – |
| CC1(C)CC(=O)c2c(nc3ccc4ccccc4c3c2-c2ccc(NC(=O)CCCC(=O)Nc3ccc(-c4c5c(nc6ccc7ccccc7c46)CC(C)(C)CC5=O)cc3)cc2)C1 | – | > 100 µM (inactive) | > 100 µM (inactive) | > 100 µM (inactive) | > 100 µM (inactive) | > 100 µM (inactive) | > 100 µM (inactive) | > 100 µM (inactive) | > 100 µM (inactive) | > 100 µM (inactive) | – | > 100 µM (inactive) | > 100 µM (inactive) | > 100 µM (inactive) | – | > 100 µM (inactive) | > 100 µM (inactive) | 41.6 µM (inactive) |
| CC1SC(=O)SC1C (stereo not given) | > 100 µM (inactive) | > 100 µM (inactive) | – | > 100 µM (inactive) | > 100 µM (inactive) | > 100 µM (inactive) | > 100 µM (inactive) | > 100 µM (inactive) | > 100 µM (inactive) | > 100 µM (inactive) | – | > 100 µM (inactive) | > 100 µM (inactive) | > 100 µM (inactive) | > 100 µM (inactive) | > 100 µM (inactive) | > 100 µM (inactive) | > 100 µM (inactive) |
| Nc1nc(N)c2ncn(Cc3ccccc3CO)c2n1 | – | > 100 µM (inactive) | > 100 µM (inactive) | > 100 µM (inactive) | > 100 µM (inactive) | > 100 µM (inactive) | > 100 µM (inactive) | > 100 µM (inactive) | > 100 µM (inactive) | > 100 µM (inactive) | > 100 µM (inactive) | > 100 µM (inactive) | > 100 µM (inactive) | > 100 µM (inactive) | > 100 µM (inactive) | > 100 µM (inactive) | – | > 100 µM (inactive) |
| COc1cc(Nc2cnc3cc(F)c(F)cc3n2)cc(OC)c1OC | – | > 100 µM (inactive) | > 100 µM (inactive) | > 100 µM (inactive) | > 100 µM (inactive) | > 100 µM (inactive) | 69.3 µM (inactive) | > 100 µM (inactive) | > 100 µM (inactive) | > 100 µM (inactive) | > 100 µM (inactive) | – | > 100 µM (inactive) | > 100 µM (inactive) | > 100 µM (inactive) | > 100 µM (inactive) | > 100 µM (inactive) | > 100 µM (inactive) |
| CC(=O)OC(OC(C)=O)c1c2ccccc2cc2ccccc12 | 15.6 µM (inactive) | 21.2 µM (inactive) | 17.9 µM (inactive) | 14.6 µM (inactive) | 18.4 µM (inactive) | 20.7 µM (inactive) | 6.93 µM (inactive) | 21 µM (inactive) | 10.3 µM (inactive) | 14.8 µM (inactive) | – | 3.56 µM (inactive) | – | 20.5 µM (inactive) | – | 24.1 µM (inactive) | 22 µM (inactive) | 17.3 µM (inactive) |
| CC(C)(Br)C(=O)/C=C/c1ccccc1 | – | 0.581 µM (active) | 5 µM (inactive) | 16.3 µM (inactive) | 10.6 µM (inactive) | 16.8 µM (inactive) | 13.1 µM (inactive) | 14.1 µM (inactive) | 0.625 µM (active) | 8.13 µM (inactive) | 2.62 µM (inactive) | 1.55 µM (inactive) | 14.9 µM (inactive) | 1.56 µM (inactive) | 2.3 µM (inactive) | 2.55 µM (inactive) | 3.5 µM (inactive) | 16.1 µM (inactive) |
| CC(Cc1ccc(Cl)cc1Cl)NO (stereo not given) | – | > 100 µM (inactive) | 46.3 µM (inactive) | – | > 100 µM (inactive) | > 100 µM (inactive) | > 100 µM (inactive) | > 100 µM (inactive) | 83.6 µM (inactive) | – | > 100 µM (inactive) | 83.9 µM (inactive) | > 100 µM (inactive) | > 100 µM (inactive) | > 100 µM (inactive) | > 100 µM (inactive) | > 100 µM (inactive) | 94 µM (inactive) |
| O=C1CCCCc2cccc(O)c21 | > 100 µM (inactive) | > 100 µM (inactive) | > 100 µM (inactive) | > 100 µM (inactive) | > 100 µM (inactive) | > 100 µM (inactive) | > 100 µM (inactive) | > 100 µM (inactive) | > 100 µM (inactive) | > 100 µM (inactive) | > 100 µM (inactive) | > 100 µM (inactive) | > 100 µM (inactive) | > 100 µM (inactive) | > 100 µM (inactive) | > 100 µM (inactive) | – | > 100 µM (inactive) |
| CC(=O)OCC1(CNc2nc(N)ncc2C#N)CC(CCc2ccccc2)C1 (stereo not given) | – | 21.4 µM (inactive) | 42 µM (inactive) | 26.8 µM (inactive) | > 100 µM (inactive) | 7.66 µM (inactive) | > 100 µM (inactive) | > 100 µM (inactive) | 5.43 µM (inactive) | > 100 µM (inactive) | > 100 µM (inactive) | 2.2 µM (inactive) | > 100 µM (inactive) | – | > 100 µM (inactive) | 28.4 µM (inactive) | 28.6 µM (inactive) | 27.4 µM (inactive) |
| COc1ccc2c(O)c1-c1c(OC)ccc(c1O)SSc1ccc(OC)c(c1O)-c1c(OC)ccc(c1O)SS2 | – | 23 µM (inactive) | 29.9 µM (inactive) | – | 27.4 µM (inactive) | > 100 µM (inactive) | 37.2 µM (inactive) | > 100 µM (inactive) | 48.2 µM (inactive) | 4.45 µM (inactive) | 51.2 µM (inactive) | 5.2 µM (inactive) | 34.4 µM (inactive) | > 100 µM (inactive) | 12.1 µM (inactive) | 5.32 µM (inactive) | > 100 µM (inactive) | 36.7 µM (inactive) |
| COC(=O)Cn1c(=O)oc2nc(-c3ccccc3)cc(C(F)(F)F)c21 | > 100 µM (inactive) | 66.1 µM (inactive) | 35.8 µM (inactive) | > 100 µM (inactive) | > 100 µM (inactive) | 45.3 µM (inactive) | 69.8 µM (inactive) | 95.9 µM (inactive) | 42.9 µM (inactive) | > 100 µM (inactive) | – | – | 24.4 µM (inactive) | > 100 µM (inactive) | 86.3 µM (inactive) | > 100 µM (inactive) | > 100 µM (inactive) | > 100 µM (inactive) |
| COc1ccc(N[S+]([O-])C2CCCCC2)cc1 (stereo not given) | 59.2 µM (inactive) | > 100 µM (inactive) | > 100 µM (inactive) | > 100 µM (inactive) | > 100 µM (inactive) | > 100 µM (inactive) | > 100 µM (inactive) | > 100 µM (inactive) | > 100 µM (inactive) | > 100 µM (inactive) | > 100 µM (inactive) | > 100 µM (inactive) | > 100 µM (inactive) | > 100 µM (inactive) | – | > 100 µM (inactive) | – | > 100 µM (inactive) |
| COc1ccc(OC)c2c(C(C)=O)cccc12 | > 100 µM (inactive) | > 100 µM (inactive) | 46.2 µM (inactive) | > 100 µM (inactive) | > 100 µM (inactive) | > 100 µM (inactive) | > 100 µM (inactive) | > 100 µM (inactive) | > 100 µM (inactive) | > 100 µM (inactive) | > 100 µM (inactive) | > 100 µM (inactive) | > 100 µM (inactive) | – | – | > 100 µM (inactive) | – | – |
| COP(=O)(Cc1ccccc1)Cc1ccccc1 | > 100 µM (inactive) | > 100 µM (inactive) | > 100 µM (inactive) | > 100 µM (inactive) | > 100 µM (inactive) | > 100 µM (inactive) | – | > 100 µM (inactive) | > 100 µM (inactive) | > 100 µM (inactive) | > 100 µM (inactive) | > 100 µM (inactive) | > 100 µM (inactive) | > 100 µM (inactive) | > 100 µM (inactive) | > 100 µM (inactive) | – | > 100 µM (inactive) |
| NC(Cc1ccc(CP(=O)(O)O)cc1)C(=O)O (stereo not given) | > 100 µM (inactive) | > 100 µM (inactive) | – | > 100 µM (inactive) | > 100 µM (inactive) | > 100 µM (inactive) | > 100 µM (inactive) | > 100 µM (inactive) | > 100 µM (inactive) | > 100 µM (inactive) | – | > 100 µM (inactive) | > 100 µM (inactive) | > 100 µM (inactive) | > 100 µM (inactive) | > 100 µM (inactive) | > 100 µM (inactive) | > 100 µM (inactive) |
| Brc1ccc(/N=N/N2CCCCC2)cc1 | – | 44.6 µM (inactive) | > 100 µM (inactive) | 45 µM (inactive) | 66.1 µM (inactive) | 35.6 µM (inactive) | 27 µM (inactive) | 49.3 µM (inactive) | 34.2 µM (inactive) | > 100 µM (inactive) | – | 27.4 µM (inactive) | – | 85.9 µM (inactive) | 74.8 µM (inactive) | 76.6 µM (inactive) | 57.3 µM (inactive) | 41.9 µM (inactive) |
